Source: patent US5286729A, “Angiotensin II receptor blocking 2,3,6 substituted quinazolinones” (American Cyanamid Company, priority 1993, dated 1994)

Biological target: T1, Angiotensin II Receptor (Bos taurus, UniProt P25104)
T1 construct: The brownish tissue forming the adrenal cortex is scraped off and finely minced with scissors before homogenization; from tissue; host or cells: beef adrenal cortex, microsomal (100,000 x g) membranes; adrenals from a local slaughter house (Maxwell-Cohen)
T1 sequence (P25104 1-359): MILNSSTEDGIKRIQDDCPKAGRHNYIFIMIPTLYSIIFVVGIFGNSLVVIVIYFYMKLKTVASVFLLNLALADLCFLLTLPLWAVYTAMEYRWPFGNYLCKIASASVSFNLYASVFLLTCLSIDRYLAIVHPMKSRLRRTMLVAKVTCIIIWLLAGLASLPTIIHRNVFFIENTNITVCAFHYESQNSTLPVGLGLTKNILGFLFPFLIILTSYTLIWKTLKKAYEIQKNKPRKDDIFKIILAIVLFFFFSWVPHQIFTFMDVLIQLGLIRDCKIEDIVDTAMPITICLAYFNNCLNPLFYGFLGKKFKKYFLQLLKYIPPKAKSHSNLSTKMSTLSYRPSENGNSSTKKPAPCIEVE
Test: Receptor Binding Assay, binding of [125I](Sar1,Ile8)AngII to beef adrenal cortex membranes
Details: radioligand; non-specific binding with 1.0 uM unlabeled (Sar1,Ile8)AngII
Excerpt: Beef adrenals are obtained from a local slaughter house (Maxwell-Cohen). [^125 I](Sar^1,Ile^8)AngII, S.A. 2200 Ci/mmole, is purchased from Dupont (NEN®, Boston, Mass.).
Approximately sixteen (16) to twenty (20) beef adrenal glands are processed as follows: fresh adrenal glands received on crushed ice are cleaned of fatty tissues and the tough membranes encapsulating the glands are removed and discarded. The brownish tissue forming the adrenal cortex is scraped off and finely minced with scissors before homogenization. Care is taken to avoid contamination with medullary tissue during dissection. The scraped cortices are suspended in twenty volumes of an ice-cold buffer medium consisting of 10 mM Tris.HCl (pH 7.4 at 22° C.) and containing 1.0 mM EDTA and 0.2M sucrose. Unless otherwise indicated, all subsequent operations are done at 4° C. […] The homogenate is centrifuged first at low speed (3,000×g) for 10 min. […] The pelleted membrane is reconstituted in 50.0 mM Tris.HCl buffer containing 0.1 mM of phenylmethylsulfonyl fluoride (PMSF) to give approximately a protein concentration of 2.5 mg per ml of tissue suspension. The membrane preparation is finally aliquoted in 1.0 ml volumes and stored at -70° C. until use in the binding assays. […]

In the case of “[^125 I](Sar^1, Ile^8) AngII [reference compound]”, the Specific binding is reported as “greater than 90%”.
